Read-outs that look alike come from different tables or passages of the source.
Experiments:
[1] = amide bond, pyridine/DMF
[2] = the molecule shown is the open-chain precursor; amide bond; 20-membered ring; ONp active ester (from TFA-ONp)/pyridine; pyridine/DMF; 5.2 mM; 50.0 °C; 3 steps

With `COC(=O)[C@@H]1CCCCNC(=O)CCC(=O)N[C@@H](CC(N)=O)C(=O)N[C@@H](CC(C)C)C(=O)N[C@@H](COCc2ccccc2)C(=O)N[C@@H]([C@@H](C)OCc2ccccc2)C(=O)N1` [-COCH2 CH2 Co-Asn-Leu-Ser(Bzl)-Thr(Bzl)-Lys--OCH3] the ring closure, isolated yield ([1]; from H-Asn-Leu-Ser(Bzl)-Thr(Bzl)-Lys(COCH2CH2CO-ONp)-OMe, 23-membered ring, TFA-ONp/pyridine, TFA, pyridine, 55.0 °C, 3 steps) was 34.9%.
For `CCOC(=O)[C@@H]1CC(=O)NCCCCCC(=O)N[C@@H](CC(N)=O)C(=O)N[C@@H](CC(C)C)C(=O)N[C@@H](COCc2ccccc2)C(=O)N[C@@H]([C@@H](C)OCc2ccccc2)C(=O)N1` [H-Acp-Asn-Leu-Ser(Bzl)-Thr(Bzl)-Asp(ONp)-OEt], the ring closure, isolated yield ([1]; from H-Acp-Asn-Leu-Ser(Bzl)-Thr(Bzl)-Asp(ONp)-OEt, 23-membered ring, TFA-ONp/pyridine, TFA, pyridine, 55.0 °C, 3 steps) was 26.6%.
`COC(=O)[C@@H]1CCC(=O)NCCCCCC(=O)N[C@@H](CC(N)=O)C(=O)N[C@@H](CC(C)C)C(=O)N[C@@H](COCc2ccccc2)C(=O)N[C@@H]([C@@H](C)OCc2ccccc2)C(=O)N1` [H-Acp-Asn-Leu-Ser(Bzl)-Thr(Bzl)-Glu(ONp)-OMe] showed a ring closure, isolated yield ([1]; from H-Acp-Asn-Leu-Ser(Bzl)-Thr(Bzl)-Glu(ONp)-OMe, 24-membered ring, TFA-ONp/pyridine, TFA, pyridine, 55.0 °C, 3 steps) of 45.9%.
In the case of `CCOC(=O)[C@@H]1CC(=O)NCC(=O)N[C@@H](COCc2ccccc2)C(=O)N[C@@H](CC(N)=O)C(=O)N[C@@H](CC(C)C)C(=O)N[C@@H](COCc2ccccc2)C(=O)N[C@@H]([C@@H](C)OCc2ccccc2)C(=O)N1` [H-Gly-Ser(Bzl)-Asn-Leu-Ser(Bzl)-Thr(Bzl)-Asp(ONp)-OEt], the ring closure, isolated yield ([1]; from H-Gly-Ser(Bzl)-Asn-Leu-Ser(Bzl)-Thr(Bzl)-Asp(ONp)-OEt, 22-membered ring, TFA-ONp/pyridine, TFA, pyridine, 55.0 °C, 3 steps) is reported as 61.3%.
`COC(=O)[C@@H]1CSCC(=O)N[C@@H](COCc2ccccc2)C(=O)N[C@@H](CC(N)=O)C(=O)N[C@@H](CC(C)C)C(=O)N[C@@H](COCc2ccccc2)C(=O)N[C@@H]([C@@H](C)OCc2ccccc2)C(=O)N1` [H-Ser(Bzl)-Asn-Leu-Ser(Bzl)-Thr(Bzl)-Cmc(ONp)-OMe] gave a ring closure, isolated yield ([1]; from H-Ser(Bzl)-Asn-Leu-Ser(Bzl)-Thr(Bzl)-Cmc(ONp)-OMe, 21-membered ring, TFA-ONp/pyridine, TFA, pyridine, 55.0 °C, 3 steps) of 41%.
`COC(=O)[C@@H]1CSCCCC(=O)N[C@@H](COCc2ccccc2)C(=O)N[C@@H](CC(N)=O)C(=O)N[C@@H](CC(C)C)C(=O)N[C@@H](COCc2ccccc2)C(=O)N[C@@H]([C@@H](C)OCc2ccccc2)C(=O)N1` [H-Ser(Bzl)-Asn-Leu-Ser(Bzl)-Thr(Bzl)-Cpc(ONp)-OMe] showed a ring closure, isolated yield ([1]; from H-Ser(Bzl)-Asn-Leu-Ser(Bzl)-Thr(Bzl)-Cpc(ONp)-OMe, 23-membered ring, TFA-ONp/pyridine, TFA, pyridine, 55.0 °C, 3 steps) of 55.9%.
For `COC(=O)[C@@H]1CCCCNC(=O)CCC(=O)N[C@@H](COCc2ccccc2)C(=O)N[C@@H](CC(N)=O)C(=O)N[C@@H](CC(C)C)C(=O)N[C@@H](COCc2ccccc2)C(=O)N[C@@H]([C@@H](C)OCc2ccccc2)C(=O)N1` [H-Ser(Bzl)-Asn-Leu-Ser(Bzl)-Thr(Bzl)-Lys(COCH2CH2CO-ONp)-OMe], the ring closure, isolated yield ([1]; from H-Ser(Bzl)-Asn-Leu-Ser(Bzl)-Thr(Bzl)-Lys(COCH2CH2CO-ONp)-OMe, 26-membered ring, TFA-ONp/pyridine, TFA, pyridine, 2.6 mM, 55.0 °C, 3 steps) was 55.5%.
For `COC(=O)[C@@H]1CCC(=O)NCCC(=O)N[C@@H](COCc2ccccc2)C(=O)N[C@@H](CC(N)=O)C(=O)N[C@@H](CC(C)C)C(=O)N[C@@H](COCc2ccccc2)C(=O)N[C@@H]([C@@H](C)OCc2ccccc2)C(=O)N1` [H-βAla-Ser(Bzl)-Asn-Leu-Ser(Bzl)-Thr(Bzl)-Glu(ONp)-OMe], the ring closure, isolated yield ([1]; from H-βAla-Ser(Bzl)-Asn-Leu-Ser(Bzl)-Thr(Bzl)-Glu(ONp)-OMe, 24-membered ring, TFA-ONp/pyridine, TFA, pyridine, 55.0 °C, 3 steps) was 68.1%.
In the case of “H-Gly-Ser(Bzl)-Asn-Leu-Ser(Bzl)-Thr(Bzl)-Glu(ONp)-OBzl?”, the ring closure, isolated yield ([1]; the molecule shown is the open-chain precursor, 23-membered ring, p-nitrophenyl ester (from TFA-ONp)/pyridine, 1.2 mM, 50.0 °C, 3 steps) is reported as 50.7%.
“H-Ser(Bzl)-Asn-Leu-Ser(Bzl)-Thr(Bzl)-4-CPA(ONp)-OMe?” showed a ring closure, isolated yield ([1]; the molecule shown is the open-chain precursor, 23-membered ring, p-nitrophenyl ester (from TFA-ONp)/pyridine, 1.33 mM, 50.0 °C, 3 steps) of 53.8%.
With “H-Ser(Bzl)-Asn-Leu-Ser(Bzl)-Thr(Bzl)-Glu(ONp)-OBzl?” the ring closure, crude yield [2] was 62.7%.
Compound “H-Ser(Bzl)-Asn-Leu-Ser(Bzl)-Thr(Bzl)-Tyr(CH2CO-ONp)-OMe” has a ring closure, isolated yield ([1]; the molecule shown is the open-chain precursor, 25-membered ring, TFA-ONp/pyridine, TFA, pyridine, then N2H4, 55.0 °C, 4 steps) of 43.8%.
In the case of “H-bAla-Ser(Bzl)-Asn-Leu-Ser(Bzl)-Thr(Bzl)-Asp(ONp)-OEt?”, the ring closure, isolated yield ([1]; the molecule shown is the open-chain precursor, 23-membered ring, p-nitrophenyl ester (from TFA-ONp)/pyridine, 4.6 mM, 50.0 °C, 3 steps) is reported as 49.5%.
